Common to all, as to type: in vitro ADME
Common to all, as to settings: for Enzyme activity, Mean: mean of Well-1 to Well-4

One series concerns the target T1, CYP3A4 (Homo sapiens, UniProt P08684).
T1 construct: host or cells: PXB-cells (icHep: JFC, HUM181001B; sandwich culture: JFC)
Briefly: Metabolic assay, cocktail substrate method (midazolam to 1’-hydroxymidazolam). As to the method: (§1) The metabolic activity of icHep and sandwich-cultured PXB-cells was measured using the cocktail substrate method of drug-metabolizing enzymes. The components of the cocktail are summarized in Supplementary Table 1. Assays were initiated by treating cells with TB containing cocktail substrates. Time point of each substrate was set when a linear increase in its metabolite production was observed. Concentrations of metabolites produced in the medium were measured by liquid chromatography-mass spectrometry (LC-MS/MS).

The next series concerns the target T2, CYP2E1 (Homo sapiens, UniProt P05181).
T2 construct: host or cells: PXB-cells (icHep: JFC, HUM181001B; sandwich culture: JFC)
In words: Metabolic assay, cocktail substrate method (chlorzoxazone to 6’-hydroxychlorzoxazone). As to the method:
as §1

The target in a further series is T3, CYP2D6 (Homo sapiens, UniProt P10635).
T3 construct: host or cells: PXB-cells (icHep: JFC, HUM181001B; sandwich culture: JFC)
Briefly: Metabolic assay, cocktail substrate method (bufuralol to 1’-hydroxybufuralol). Here is the method:
as §1

Setting [1] is: PXB-cells (JFC), incubation time 15 min, single wells.
Setting [2] is: PXB-cells (JFC), incubation time 30 min, single wells.
The mark [3] stands for this setting: PXB-cells (JFC), incubation time 45 min, single wells.
The mark [4] stands for this setting: PXB-cells (JFC), incubation time 60 min, single wells.
Setting [5] is: PXB-cells (JFC), incubation time 90 min, single wells.
The mark [6] stands for this setting: PXB-cells (JFC), rate per single well.
[7] abbreviates: icHep (HUM18100B), incubation time 15 min, single wells.
The mark [8] stands for this setting: icHep (HUM18100B), incubation time 30 min, single wells.
[9] abbreviates: icHep (HUM18100B), incubation time 45 min, single wells.
The mark [10] stands for this setting: icHep (HUM18100B), incubation time 60 min, single wells.
Setting [11] is: icHep (HUM18100B), incubation time 90 min, single wells.
Where [12] appears, read: icHep (HUM18100B), rate per single well.
Where [13] appears, read: icHep (JFC), incubation time 15 min, single wells.
Setting [14] is: icHep (JFC), incubation time 30 min, single wells.
Setting [15] is: icHep (JFC), incubation time 45 min, single wells.
The mark [16] stands for this setting: icHep (JFC), incubation time 60 min, single wells.
[17] abbreviates: icHep (JFC), incubation time 90 min, single wells.
Where [18] appears, read: icHep (JFC), rate per single well.

Structures are written as SMILES. Where “and” joins values, the source holds several entries; their conditions need not be identical. Identical values can stand only once.

T2 sequence (P05181 whole entry): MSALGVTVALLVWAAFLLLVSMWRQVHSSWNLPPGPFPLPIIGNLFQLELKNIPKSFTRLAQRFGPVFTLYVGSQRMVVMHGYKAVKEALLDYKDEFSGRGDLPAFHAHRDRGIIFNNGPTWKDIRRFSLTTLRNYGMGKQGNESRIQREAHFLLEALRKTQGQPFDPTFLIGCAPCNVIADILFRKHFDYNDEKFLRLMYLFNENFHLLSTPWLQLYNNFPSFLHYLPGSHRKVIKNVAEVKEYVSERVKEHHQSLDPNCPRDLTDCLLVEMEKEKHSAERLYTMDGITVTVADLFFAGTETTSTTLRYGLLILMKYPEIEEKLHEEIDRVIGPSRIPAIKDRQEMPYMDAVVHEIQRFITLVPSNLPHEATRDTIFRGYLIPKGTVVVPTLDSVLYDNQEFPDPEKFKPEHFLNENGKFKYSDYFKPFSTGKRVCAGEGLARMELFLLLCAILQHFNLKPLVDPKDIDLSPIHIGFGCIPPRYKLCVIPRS
T1 sequence (P08684 whole entry): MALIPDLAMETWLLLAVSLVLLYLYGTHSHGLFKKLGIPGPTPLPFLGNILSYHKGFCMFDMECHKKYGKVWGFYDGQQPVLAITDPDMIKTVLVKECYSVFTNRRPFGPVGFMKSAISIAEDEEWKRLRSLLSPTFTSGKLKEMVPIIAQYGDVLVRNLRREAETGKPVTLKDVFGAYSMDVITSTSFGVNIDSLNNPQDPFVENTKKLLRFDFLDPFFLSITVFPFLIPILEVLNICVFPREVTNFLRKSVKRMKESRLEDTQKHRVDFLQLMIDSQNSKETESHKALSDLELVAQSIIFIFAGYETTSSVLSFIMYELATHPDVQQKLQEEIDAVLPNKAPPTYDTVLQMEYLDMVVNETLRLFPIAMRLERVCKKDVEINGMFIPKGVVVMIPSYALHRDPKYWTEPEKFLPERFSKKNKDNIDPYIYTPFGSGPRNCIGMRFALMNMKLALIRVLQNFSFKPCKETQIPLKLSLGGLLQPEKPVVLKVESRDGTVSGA
T3 sequence (P10635 whole entry): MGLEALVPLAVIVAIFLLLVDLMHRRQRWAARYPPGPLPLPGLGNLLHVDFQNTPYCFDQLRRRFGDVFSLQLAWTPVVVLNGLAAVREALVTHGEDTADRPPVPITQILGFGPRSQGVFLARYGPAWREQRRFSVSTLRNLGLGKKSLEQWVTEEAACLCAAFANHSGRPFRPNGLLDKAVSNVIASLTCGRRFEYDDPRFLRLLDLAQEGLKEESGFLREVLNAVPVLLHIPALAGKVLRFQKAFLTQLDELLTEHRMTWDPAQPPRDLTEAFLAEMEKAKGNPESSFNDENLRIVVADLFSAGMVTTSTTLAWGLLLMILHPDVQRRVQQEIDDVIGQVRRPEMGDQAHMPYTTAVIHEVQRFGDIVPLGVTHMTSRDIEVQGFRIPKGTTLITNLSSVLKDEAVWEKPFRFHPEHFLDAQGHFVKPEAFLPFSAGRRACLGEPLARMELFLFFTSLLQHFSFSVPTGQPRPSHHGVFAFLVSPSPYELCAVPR

As for `OCc1ncc2n1-c1ccc(Cl)cc1C(c1ccccc1F)=NC2` [1'-hydroxymidazolam], the Enzyme activity at CYP3A4 (setting [1]) is 85.9964 pmol/106 cells and 107.28 pmol/106 cells and 107.269 pmol/106 cells and 94.4354 pmol/106 cells; at CYP3A4 (setting [2]), 157.896 pmol/106 cells and 182.793 pmol/106 cells and 221.326 pmol/106 cells and 195.956 pmol/106 cells; on CYP3A4 (setting [3]) it was 229.127 pmol/106 cells and 265.395 pmol/106 cells and 205.135 pmol/106 cells and 181.378 pmol/106 cells; on CYP3A4 (setting [4]) it was 216.024 pmol/106 cells and 232.078 pmol/106 cells and 207.606 pmol/106 cells and 244.165 pmol/106 cells; on CYP3A4 (setting [5]), 251.177 pmol/106 cells and 288.431 pmol/106 cells and 316.537 pmol/106 cells and 214.43 pmol/106 cells; on CYP3A4 (setting [6]), 4.79 pmol/min/106 cells and 5.03 pmol/min/106 cells and 7.60 pmol/min/106 cells and 6.77 pmol/min/106 cells. Moreover, the Enzyme activity is 124.221 pmol/106 cells and 126.279 pmol/106 cells and 141.412 pmol/106 cells and 115.91 pmol/106 cells at CYP3A4 (setting [7]); 259.113 pmol/106 cells and 258.447 pmol/106 cells and 251.469 pmol/106 cells and 277.435 pmol/106 cells at CYP3A4 (setting [8]); 382.492 pmol/106 cells and 333.832 pmol/106 cells and 305.042 pmol/106 cells and 320.283 pmol/106 cells on CYP3A4 (setting [9]); 439.172 pmol/106 cells and 380.966 pmol/106 cells and 417.242 pmol/106 cells and 349.083 pmol/106 cells on CYP3A4 (setting [10]); 536.397 pmol/106 cells and 514.134 pmol/106 cells and 491.294 pmol/106 cells and 551.51 pmol/106 cells at CYP3A4 (setting [11]); 8.99 pmol/min/106 cells and 8.81 pmol/min/106 cells and 7.34 pmol/min/106 cells and 10.8 pmol/min/106 cells on CYP3A4 (setting [12]). The Enzyme activity at CYP3A4 (setting [13]) is 99.4818 pmol/106 cells and 103.678 pmol/106 cells and 120.741 pmol/106 cells and 92.847 pmol/106 cells; at CYP3A4 (setting [14]), 252.368 pmol/106 cells and 242.904 pmol/106 cells and 185.11 pmol/106 cells and 190.476 pmol/106 cells; at CYP3A4 (setting [15]) it was 266.706 pmol/106 cells and 248.159 pmol/106 cells and 239.281 pmol/106 cells and 225.504 pmol/106 cells; on CYP3A4 (setting [16]) it was 273.171 pmol/106 cells and 272.05 pmol/106 cells and 245.256 pmol/106 cells and 275.122 pmol/106 cells; on CYP3A4 (setting [17]), 330.978 pmol/106 cells and 294.591 pmol/106 cells and 323.573 pmol/106 cells and 259.768 pmol/106 cells. In addition, the “Enzyme activity, Mean” value at CYP3A4 (PXB-cells (JFC)) is listed as 6.05 pmol/min/106 cells; at CYP3A4 (icHep (HUM18100B)), 8.98 pmol/min/106 cells; on CYP3A4 (icHep (JFC)), 7.57 pmol/min/106 cells.

`O=c1[nH]c2cc(Cl)c(O)cc2o1` [6'-hydroxychlorzoxazone]: the Enzyme activity on CYP2E1 (setting [1]) was 2.306 pmol/106 cells and 2.95 pmol/106 cells and 3.355 pmol/106 cells and 2.895 pmol/106 cells; on CYP2E1 (setting [2]), 5.44 pmol/106 cells and 5.421 pmol/106 cells and 6.357 pmol/106 cells and 6.2485 pmol/106 cells; at CYP2E1 (setting [3]) it was 6.903 pmol/106 cells and 8.029 pmol/106 cells and 8.51 pmol/106 cells and 7.254 pmol/106 cells; at CYP2E1 (setting [4]), 7.3761 pmol/106 cells and 7.959 pmol/106 cells and 8.112 pmol/106 cells and 7.339 pmol/106 cells; at CYP2E1 (setting [5]), 7.477 pmol/106 cells and 10.4196 pmol/106 cells and 8.199 pmol/106 cells and 8.482 pmol/106 cells; at CYP2E1 (setting [6]) it was 0.153 pmol/min/106 cells and 0.169 pmol/min/106 cells and 0.172 pmol/min/106 cells and 0.145 pmol/min/106 cells. In addition, the Enzyme activity was 10.0765 pmol/106 cells and 9.906 pmol/106 cells and 11.3983 pmol/106 cells and 9.755 pmol/106 cells at CYP2E1 (setting [7]); 22.452 pmol/106 cells and 22.028 pmol/106 cells and 22.1618 pmol/106 cells and 20.005 pmol/106 cells on CYP2E1 (setting [8]); 33.1164 pmol/106 cells and 28.7079 pmol/106 cells and 30.6951 pmol/106 cells and 27.4528 pmol/106 cells at CYP2E1 (setting [9]); 42.0307 pmol/106 cells and 37.5801 pmol/106 cells and 42.224 pmol/106 cells and 33.7793 pmol/106 cells at CYP2E1 (setting [10]); 67.3851 pmol/106 cells and 64.4144 pmol/106 cells and 55.8641 pmol/106 cells and 56.1231 pmol/106 cells at CYP2E1 (setting [11]); 0.710 pmol/min/106 cells and 0.598 pmol/min/106 cells and 0.673 pmol/min/106 cells and 0.530 pmol/min/106 cells on CYP2E1 (setting [12]). In addition, the Enzyme activity on CYP2E1 (setting [13]) is 2.771 pmol/106 cells and 3.158 pmol/106 cells and 3.038 pmol/106 cells and 3.018 pmol/106 cells; at CYP2E1 (setting [14]) it was 4.046 pmol/106 cells and 4.392 pmol/106 cells and 5.788 pmol/106 cells and 6.302 pmol/106 cells; on CYP2E1 (setting [15]), 8.107 pmol/106 cells and 7.33 pmol/106 cells and 8.049 pmol/106 cells and 8.219 pmol/106 cells; at CYP2E1 (setting [16]), 8.619 pmol/106 cells and 8.336 pmol/106 cells and 6.8 pmol/106 cells and 10.6833 pmol/106 cells; at CYP2E1 (setting [17]), 10.5593 pmol/106 cells and 9.487 pmol/106 cells and 8.477 pmol/106 cells and 10.9673 pmol/106 cells; on CYP2E1 (setting [18]), 0.178 pmol/min/106 cells and 0.139 pmol/min/106 cells and 0.167 pmol/min/106 cells and 0.173 pmol/min/106 cells. The “Enzyme activity, Mean” value on CYP2E1 (PXB-cells (JFC)) is given as 0.160 pmol/min/106 cells; at CYP2E1 (icHep (HUM18100B)), 0.628 pmol/min/106 cells; at CYP2E1 (icHep (JFC)), 0.164 pmol/min/106 cells.

Regarding `CC(O)c1cccc2cc(C(O)CNC(C)(C)C)oc12` (centres unmarked) [1'-hydroxybufuralol], the Enzyme activity at CYP2D6 (setting [1]) was 16.9358 pmol/106 cells and 20.2476 pmol/106 cells and 18.9803 pmol/106 cells and 17.4477 pmol/106 cells; on CYP2D6 (setting [2]) it was 29.3048 pmol/106 cells and 32.2567 pmol/106 cells and 32.3369 pmol/106 cells and 36.5879 pmol/106 cells; at CYP2D6 (setting [3]), 57.2694 pmol/106 cells and 67.3705 pmol/106 cells and 63.1354 pmol/106 cells and 57.1013 pmol/106 cells; at CYP2D6 (setting [4]), 88.7619 pmol/106 cells and 86.626 pmol/106 cells and 83.8364 pmol/106 cells and 89.8476 pmol/106 cells; at CYP2D6 (setting [5]) it was 79.3357 pmol/106 cells and 85.9811 pmol/106 cells and 83.3593 pmol/106 cells and 74.6468 pmol/106 cells; on CYP2D6 (setting [6]), 1.62 pmol/min/106 cells and 1.56 pmol/min/106 cells and 1.50 pmol/min/106 cells and 1.58 pmol/min/106 cells. For the same molecule, the Enzyme activity at CYP2D6 (setting [7]) is 20.6578 pmol/106 cells and 24.0318 pmol/106 cells and 24.5391 pmol/106 cells and 24.1229 pmol/106 cells; at CYP2D6 (setting [8]), 38.6716 pmol/106 cells and 36.9398 pmol/106 cells and 37.9846 pmol/106 cells and 33.7885 pmol/106 cells; at CYP2D6 (setting [9]), 56.8381 pmol/106 cells and 54.0547 pmol/106 cells and 51.5492 pmol/106 cells and 53.9902 pmol/106 cells; on CYP2D6 (setting [10]), 80.7041 pmol/106 cells and 78.1674 pmol/106 cells and 75.41 pmol/106 cells and 73.212 pmol/106 cells; on CYP2D6 (setting [11]), 107.294 pmol/106 cells and 123.561 pmol/106 cells and 104.675 pmol/106 cells and 114.288 pmol/106 cells; on CYP2D6 (setting [12]) it was 1.40 pmol/min/106 cells and 1.37 pmol/min/106 cells and 1.25 pmol/min/106 cells and 1.31 pmol/min/106 cells. Moreover, the Enzyme activity at CYP2D6 (setting [13]) is 27.4857 pmol/106 cells and 27.0951 pmol/106 cells and 24.9076 pmol/106 cells and 26.1443 pmol/106 cells; on CYP2D6 (setting [14]) it was 41.2873 pmol/106 cells and 33.111 pmol/106 cells and 48.4523 pmol/106 cells and 44.4518 pmol/106 cells; on CYP2D6 (setting [15]) it was 63.4972 pmol/106 cells and 59.7018 pmol/106 cells and 65.0037 pmol/106 cells and 67.8302 pmol/106 cells; at CYP2D6 (setting [16]), 89.1933 pmol/106 cells and 91.8156 pmol/106 cells and 102.797 pmol/106 cells and 101.548 pmol/106 cells; at CYP2D6 (setting [17]), 106.28 pmol/106 cells and 107.567 pmol/106 cells and 125.014 pmol/106 cells and 113.156 pmol/106 cells; on CYP2D6 (setting [18]), 1.43 pmol/min/106 cells and 1.69 pmol/min/106 cells and 1.64 pmol/min/106 cells and 1.42 pmol/min/106 cells. Besides, the “Enzyme activity, Mean” value on CYP2D6 (PXB-cells (JFC)) was found to be 1.57 pmol/min/106 cells; at CYP2D6 (icHep (HUM18100B)) it was 1.33 pmol/min/106 cells; at CYP2D6 (icHep (JFC)) it was 1.55 pmol/min/106 cells.

(Values after PMC10444810, “Induction of open-form bile canaliculus formation by hepatocytes for evaluation of biliary drug excretion” (Communications Biology, 2023).)
